Results as given in the supplement of paper PMC10307832.

How the values were obtained:
Test in all cases: relative viability (nuclei count vs DMSO), 5 days (fraction); higher = more cells survive
ALW-II-49-7 + Navitoclax = compound: Cc1ccc(C(=O)Nc2cccc(C(F)(F)F)c2)cc1Nc1cncc(C(N)=O)c1 [ALW-II-49-7] + CC1(C)CCC(c2ccc(Cl)cc2)=C(CN2CCN(c3ccc(C(=O)NS(=O)(=O)c4ccc(N[C@H](CCN5CCOCC5)CSc5ccccc5)c(S(=O)(=O)C(F)(F)F)c4)cc3)CC2)C1 [Navitoclax] (partner 0.5 µM)
Outline: (§1)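 Lung cancer cell lines in 1536-well plates were dosed by pin tool the day after seeding, either with one drug alone or with a fixed anchor-drug dose plus five library-drug doses (not always all listed) in √10 steps. After 5 days, cells were fixed and their nuclei stained in one step (final 0.05% Triton X-100, 1% formaldehyde, 1 ug/ml Hoechst), then counted on 4× images. Relative viability is the nuclei count in treated wells divided by that in vehicle wells. Values are medians of duplicate plates.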

ALW-II-49-7 + Pemetrexed = compound: Cc1ccc(C(=O)Nc2cccc(C(F)(F)F)c2)cc1Nc1cncc(C(N)=O)c1 [ALW-II-49-7] + Nc1nc2[nH]cc(CCc3ccc(C(=O)N[C@@H](CCC(=O)O)C(=O)O)cc3)c2c(=O)[nH]1 [Pemetrexed] (partner 0.2 µM)
Outline: as §1

Dasatinib + Bortezomib = compound: Cc1nc(Nc2ncc(C(=O)Nc3c(C)cccc3Cl)s2)cc(N2CCN(CCO)CC2)n1 [Dasatinib] + CC(C)C[C@H](NC(=O)[C@H](Cc1ccccc1)NC(=O)c1cnccn1)B(O)O [Bortezomib] (partner 0.002 µM)
Outline: as §1

Dasatinib + Phenformin = compound: Cc1nc(Nc2ncc(C(=O)Nc3c(C)cccc3Cl)s2)cc(N2CCN(CCO)CC2)n1 [Dasatinib] + N=C(N)NC(=N)NCCc1ccccc1 [Phenformin] (partner 250 µM)
Outline: as §1

UMC-11
relative viability (ALW-II-49-7 + Navitoclax; first compound 0.08 µM): 0.311
relative viability (ALW-II-49-7 + Navitoclax; first compound 0.253 µM): 0.345
relative viability (ALW-II-49-7 + Navitoclax; first compound 2.53 µM): 0.322
relative viability (ALW-II-49-7 + Navitoclax; first compound 8 µM): 0.335
relative viability (ALW-II-49-7 + Pemetrexed; first compound 0.08 µM): 0.856
relative viability (ALW-II-49-7 + Pemetrexed; first compound 0.253 µM): 0.79
relative viability (ALW-II-49-7 + Pemetrexed; first compound 0.8 µM): 0.76
relative viability (ALW-II-49-7 + Pemetrexed; first compound 2.53 µM): 0.803
relative viability (ALW-II-49-7 + Pemetrexed; first compound 8 µM): 0.705
relative viability (Dasatinib + Bortezomib; first compound 0.005 µM): 0.668
relative viability (Dasatinib + Bortezomib; first compound 0.01581 µM): 0.688
relative viability (Dasatinib + Bortezomib; first compound 0.05 µM): 0.806
relative viability (Dasatinib + Bortezomib; first compound 0.1581 µM): 0.313
relative viability (Dasatinib + Bortezomib; first compound 0.5 µM): 0.291
relative viability (Dasatinib + Phenformin; first compound 0.005 µM): 0.307
relative viability (Dasatinib + Phenformin; first compound 0.01581 µM): 0.332
relative viability (Dasatinib + Phenformin; first compound 0.05 µM): 0.265
relative viability (Dasatinib + Phenformin; first compound 0.1581 µM): 0.234
relative viability (Dasatinib + Phenformin; first compound 0.5 µM): 0.171
